Tested on: HT29 human colorectal adenocarcinoma cell line
Assay: cell proliferation assay (Cell Titer-Glo luminescent cell viability assay)
Type: cell-based
Details: HT-29, cell proliferative assay, HT29 cells, 72 hr treatment, values given as ranges, read-out: pIC50 (converted)
In short: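 Cells grown in DMEM with 10% FBS and exposed to compounds for 72 h. Viability read by CellTiter-Glo luminescence, expressed as percentage of DMSO-treated cells.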

| Structure (SMILES) | IC50 [nM] |
| --- | --- |
| C=CC[C@H]1CN(C2CCCC2)c2nc(Nc3ccc(C(=O)NN4CCN(C)CC4)cc3OC)ncc2N(C)C1=O [Compound 206, (S)-4-(7-allyl-9-cyclopentyl-5-methyl-6-oxo-6,7,8,9-tetrahydro-5H-pyrimido[4,5-b][1,4]diazepin-2-ylamino)-3-methoxy-N-(4-methylpiperazin-1-yl)benzamide] | < 1 |
| C=CC[C@H]1CN(C2CCCC2)c2nc(Nc3ccc(C(=O)NC4CCNCC4)cc3OC)ncc2N(C)C1=O [Compound 207, (S)-4-(7-allyl-9-cyclopentyl-5-methyl-6-oxo-6,7,8,9-tetrahydro-5H-pyrimido[4,5-b][1,4]diazepin-2-ylamino)-3-methoxy-N-(piperidin-4-yl)benzamide] | 3.16 to 10 |
| C#CCC1CN(C2CCCC2)c2nc(Nc3ccc(C(=O)NC4CCNCC4)cc3OC)ncc2N(C)C1=O (stereo not drawn) [Compound 211, 4-(9-cyclopentyl-5-methyl-6-oxo-7-(prop-2-ynyl)-6,7,8,9-tetrahydro-5H-pyrimido[4,5-b][1,4]diazepin-2-ylamino)-3-methoxy-N-(piperidin-4-yl)benzamide] | 1 to 2.51 |
| C=CCC1CN(C2CCCCC2)c2nc(Nc3ccc(C(=O)NC4CN(C)C4)cc3OC)ncc2N(C)C1=O (stereo not drawn) [Compound 225, 4-(7-allyl-9-cyclohexyl-5-methyl-6-oxo-6,7,8,9-tetrahydro-5H-pyrimido[4,5-b][1,4]diazepin-2-ylamino)-3-methoxy-N-(1-methylazetidin-3-yl)benzamide] | 3.16 to 10 |
| C=CCC1CN(C2CCCCC2)c2nc(Nc3ccc(C(=O)NN4CCN(C)CC4)cc3OC)ncc2N(C)C1=O (stereo not drawn) [Compound 226, 4-(7-allyl-9-cyclohexyl-5-methyl-6-oxo-6,7,8,9-tetrahydro-5H-pyrimido[4,5-b][1,4]diazepin-2-ylamino)-3-methoxy-N-(4-methylpiperazin-1-yl)benzamide] | 1 to 2.51 |
| C=CCC1CN(C2CCCCC2)c2nc(Nc3ccc(C(=O)N[C@H]4CCCN(C)C4)cc3OC)ncc2N(C)C1=O (stereo partly drawn) [Compound 227, 4-(7-allyl-9-cyclohexyl-5-methyl-6-oxo-6,7,8,9-tetrahydro-5H-pyrimido[4,5-b][1,4]diazepin-2-ylamino)-3-methoxy-N-((S)-1-methylpiperidin-3-yl)benzamide] | > 10 |
| C=CC1(C)CN(C2CCCC2)c2nc(Nc3ccc(C(=O)NN4CCN(C)CC4)cc3OC)ncc2N(C)C1=O (stereo not drawn) [Compound 242, 4-(9-cyclopentyl-5,7-dimethyl-6-oxo-7-vinyl-6,7,8,9-tetrahydro-5H-pyrimido[4,5-b][1,4]diazepin-2-ylamino)-3-methoxy-N-(4-methylpiperazin-1-yl)benzamide] | > 10 |
| C=C[C@]1(C)CN(C2CCCC2)c2nc(Nc3ccc(C(=O)NN4CCN(C)CC4)cc3OC)ncc2N(C)C1=O [Compound 243, (R)-4-(9-cyclopentyl-5,7-dimethyl-6-oxo-7-vinyl-6,7,8,9-tetrahydro-5H-pyrimido[4,5-b][1,4]diazepin-2-ylamino)-3-methoxy-N-(4-methylpiperazin-1-yl)benzamide] | < 1 |
| C=C[C@@]1(C)CN(C2CCCC2)c2nc(Nc3ccc(C(=O)NN4CCN(C)CC4)cc3OC)ncc2N(C)C1=O [Compound 244, (S)-4-(9-cyclopentyl-5,7-dimethyl-6-oxo-7-vinyl-6,7,8,9-tetrahydro-5H-pyrimido[4,5-b][1,4]diazepin-2-ylamino)-3-methoxy-N-(4-methylpiperazin-1-yl)benzamide] | > 10 |
| C=CC1(C)CN(C2CCCC2)c2nc(Nc3ccc(C(=O)N[C@@H]4CCCNC4)cc3OC)ncc2N(C)C1=O (stereo partly drawn) [Compound 245, 4-(9-cyclopentyl-5,7-dimethyl-6-oxo-7-vinyl-6,7,8,9-tetrahydro-5H-pyrimido[4,5-b][1,4]diazepin-2-ylamino)-3-methoxy-N-((R)-piperidin-3-yl)benzamide] | 3.16 to 10 |
| C=CC1(C)CN(C2CCCC2)c2nc(Nc3ccc(C(=O)N[C@H]4CCCNC4)cc3OC)ncc2N(C)C1=O (stereo partly drawn) [Compound 246, 4-(9-cyclopentyl-5,7-dimethyl-6-oxo-7-vinyl-6,7,8,9-tetrahydro-5H-pyrimido[4,5-b][1,4]diazepin-2-ylamino)-3-methoxy-N-((S)-piperidin-3-yl)benzamide] | 1 to 2.51 |
| C=CC1(C)CN(C2CCCC2)c2nc(Nc3ccc(C(=O)NC4CN(C)C4)cc3OC)ncc2N(C)C1=O (stereo not drawn) [Compound 247, 4-(9-cyclopentyl-5,7-dimethyl-6-oxo-7-vinyl-6,7,8,9-tetrahydro-5H-pyrimido[4,5-b][1,4]diazepin-2-ylamino)-3-methoxy-N-(1-methylazetidin-3-yl)benzamide] | 3.16 to 10 |

Further lines, results first:

| IC50 [nM] | Structure (SMILES) |
| --- | --- |
| 1 to 2.51 | C#CCC1CN(C2CCCC2)c2nc(Nc3ccc(C(=O)NC4CCN(C)CC4)cc3OC)ncc2N(C)C1=O (stereo not drawn) [Compound 209] |
| 1 to 2.51 | CC#CC[C@@H]1CN(C2CCCC2)c2nc(Nc3ccc(C(=O)NC4CCN(C)CC4)cc3OC)ncc2N(C)C1=O [Compound 216, (R)-4-(7-(but-2-ynyl)-9-cyclopentyl-5-methyl-6-oxo-6,7,8,9-tetrahydro-5H-pyrimido[4,5-b][1,4]diazepin-2-ylamino)-3-methoxy-N-(1-methylpiperidin-4-yl)benzamide] |
| < 1 | C/C=C\CC1CN(C2CCCC2)c2nc(Nc3ccc(C(=O)NC4CCN(C)CC4)cc3OC)ncc2N(C)C1=O (stereo not drawn) [Compound 218, (Z)-4-(7-(but-2-enyl)-9-cyclopentyl-5-methyl-6-oxo-6,7,8,9-tetrahydro-5H-pyrimido[4,5-b][1,4]diazepin-2-ylamino)-3-methoxy-N-(1-methylpiperidin-4-yl)benzamide] |
| 3.16 to 10 | CCC#CCC1CN(C2CCCC2)c2nc(Nc3ccc(C(=O)NC4CCN(C)CC4)cc3OC)ncc2N(C)C1=O (stereo not drawn) [Compound 219, 4-(9-cyclopentyl-5-methyl-6-oxo-7-(pent-2-ynyl)-6,7,8,9-tetrahydro-5H-pyrimido[4,5-b][1,4]diazepin-2-ylamino)-3-methoxy-N-(1-methylpiperidin-4-yl)benzamide] |
| 3.16 to 10 | C/C=C/CC1CN(C2CCCC2)c2nc(Nc3ccc(C(=O)NC4CCN(C)CC4)cc3OC)ncc2N(C)C1=O (stereo not drawn) [Compound 220, (E)-4-(7-(but-2-enyl)-9-cyclopentyl-5-methyl-6-oxo-6,7,8,9-tetrahydro-5H-pyrimido[4,5-b][1,4]diazepin-2-ylamino)-3-methoxy-N-(1-methylpiperidin-4-yl)benzamide] |
| 1 to 2.51 | C=CCC1(C)CN(C2CCCC2)c2nc(Nc3ccc(C(=O)NC4CCN(C)CC4)cc3OC)ncc2N(C)C1=O (stereo not drawn) [Compound 221, 4-(7-allyl-9-cyclopentyl-5,7-dimethyl-6-oxo-6,7,8,9-tetrahydro-5H-pyrimido[4,5-b][1,4]diazepin-2-ylamino)-3-methoxy-N-(1-methylpiperidin-4-yl)benzamide] |
| 1 to 2.51 | C=CCC1CN(C2CCCCC2)c2nc(Nc3ccc(C(=O)N[C@H]4CCN(C)C4)cc3OC)ncc2N(C)C1=O (stereo partly drawn) [Compound 229, 4-(7-allyl-9-cyclohexyl-5-methyl-6-oxo-6,7,8,9-tetrahydro-5H-pyrimido[4,5-b][1,4]diazepin-2-ylamino)-3-methoxy-N-((S)-1-methylpyrrolidin-3-yl)benzamide] |
| > 10 | C=CCC1CN(C2CCCCC2)c2nc(Nc3ccc(C(=O)N[C@@H]4CCN(C)C4)cc3OC)ncc2N(C)C1=O (stereo partly drawn) [Compound 230, 4-(7-allyl-9-cyclohexyl-5-methyl-6-oxo-6,7,8,9-tetrahydro-5H-pyrimido[4,5-b][1,4]diazepin-2-ylamino)-3-methoxy-N-((R)-1-methylpyrrolidin-3-yl)benzamide] |
| > 10 | C=C(F)CC1CN(C2CCCC2)c2nc(Nc3ccc(C(=O)NC4CCN(C)CC4)cc3OC)ncc2N(C)C1=O (stereo not drawn) [Compound 231, 4-(9-cyclopentyl-7-(2-fluoroallyl)-5-methyl-6-oxo-6,7,8,9-tetrahydro-5H-pyrimido[4,5-b][1,4]diazepin-2-ylamino)-3-methoxy-N-(1-methylpiperidin-4-yl)benzamide] |
| 3.16 to 10 | C=CC1(C)CN(C2CCCC2)c2nc(Nc3ccc(C(=O)NC4CCN(C)CC4)cc3OC)ncc2N(C)C1=O (stereo not drawn) [Compound 239, 4-(9-cyclopentyl-5,7-dimethyl-6-oxo-7-vinyl-6,7,8,9-tetrahydro-5H-pyrimido[4,5-b][1,4]diazepin-2-ylamino)-3-methoxy-N-(1-methylpiperidin-4-yl)benzamide] |
| 3.16 to 10 | C=C[C@]1(C)CN(C2CCCC2)c2nc(Nc3ccc(C(=O)NC4CCN(C)CC4)cc3OC)ncc2N(C)C1=O [Compound 240, (R)-4-(9-cyclopentyl-5,7-dimethyl-6-oxo-7-vinyl-6,7,8,9-tetrahydro-5H-pyrimido[4,5-b][1,4]diazepin-2-ylamino)-3-methoxy-N-(1-methylpiperidin-4-yl)benzamide] |
| > 10 | C=C[C@@]1(C)CN(C2CCCC2)c2nc(Nc3ccc(C(=O)NC4CCN(C)CC4)cc3OC)ncc2N(C)C1=O [Compound 241, (S)-4-(9-cyclopentyl-5,7-dimethyl-6-oxo-7-vinyl-6,7,8,9-tetrahydro-5H-pyrimido[4,5-b][1,4]diazepin-2-ylamino)-3-methoxy-N-(1-methylpiperidin-4-yl)benzamide] |

Reference: US20090291938A1 (TAKEDA PHARMACEUTICAL COMPANY LIMITED, priority 2007, published 2009)
